Patent US9149475B2, “Protein kinase C inhibitors and uses thereof” (Rigel Pharmaceuticals, Inc., priority 2009, dated 2015)

System: Human primary T cells
Test: IL-2 ELISA, human primary T cell, anti-CD3+CD28+ (whole cell assay)
Type: cell-based
Settings: Homo sapiens, T-cell, 24 h, human primary T cells stimulated with anti-CD3 + anti-CD28, 24 hours
In short: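 PBMC-derived T cells, pre-expanded on αCD3/αCD28 with IL-2 and then washed free of IL-2, were preincubated with compound for 1 hr at 37° C (100,000 cells/well). They were then stimulated on 1 μg/ml αCD3 plus 5 μg/ml αCD28 for 24 h, and supernatant IL-2 was measured by ELISA. The counter-assay used 0.5 ng/ml PMA plus 0.1 μM ionomycin instead.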

| SMILES | IC50 [nM] |
| --- | --- |
| CC1(C)CC(Nc2nc(Nc3ccc(C4CC4)c(-n4cnnn4)c3)ncc2F)CC(C)(C)N1 [III-118, N^2-(4-cyclopropyl-3-(1H-tetrazol-1-yl)phenyl)-5-fluoro-N^4(2,2,6,6-tetramethylpiperidin-4-yl)pyrimidine-2,4-diamine] | < 250 |
| CN1C(C)(C)CC(Nc2nc(Nc3ccc(C4CC4)c(-n4cnnn4)c3)ncc2F)CC1(C)C [III-119, N^2-(4-cyclopropyl-3-(1H-tetrazol-1-yl)phenyl)-5-fluoro-N^4(1,2,2,6,6-pentamethylpiperidin-4-yl)pyrimidine-2,4-diamine] | < 250 |
| Cn1nnnc1-c1cc(Nc2ncc(F)c(NC3CC(C)(C)NC(C)(C)C3)n2)ccc1F [III-120, 5-fluoro-N2-(4-fluoro-3-(1-methyl-1H-tetrazol-5-yl)phenyl)-N4-(2,2,6,6-tetramethylpiperidin-4-yl)pyrimidine-2,4-diamine] | 500 to 1000 |
| CN1C(C)(C)CC(Nc2nc(Nc3ccc(F)c(-c4nnnn4C)c3)ncc2F)CC1(C)C [III-121, 5-fluoro-N2-(4-fluoro-3-(1-methyl-1H-tetrazol-5-yl)phenyl)-N4-(1,2,2,6,6-pentamethylpiperidin-4-yl)pyrimidine-2,4-diamine] | < 250 |
| CC(C)Oc1ccc(Nc2ncc(F)c(NC3CC(C)(C)NC(C)(C)C3)n2)cc1-c1nnnn1C [III-122, 5-fluoro-N2-(4-isopropoxy-3-(1-methyl-1H-tetrazol-5-yl)phenyl)-N4-(2,2,6,6-tetramethylpiperidin-4-yl)pyrimidine-2,4-diamine] | < 250 |
| CC(C)Oc1ccc(Nc2ncc(F)c(NC3CC(C)(C)N(C)C(C)(C)C3)n2)cc1-c1nnnn1C [III-123, 5-fluoro-N2-(4-isopropoxy-3-(1-methyl-1H-tetrazol-5-yl)phenyl)-N4-(1,2,2,6,6-pentamethylpiperidin-4-yl)pyrimidine-2,4-diamine] | < 250 |
| Cn1nnnc1-c1cc(Nc2ncc(F)c(NC3CC(C)(C)NC(C)(C)C3)n2)ccc1OC1CCOCC1 [III-124, 5-fluoro-N2-(3-(1-methyl-1H-tetrazol-5-yl)-4-(tetrahydro-2H-pyran-4-yloxy)phenyl)-N4-(2,2,6,6-tetramethylpiperidin-4-yl)pyrimidine-2,4-diamine] | > 1000 |
| CN1C(C)(C)CC(Nc2nc(Nc3ccc(OC4CCOCC4)c(-c4nnnn4C)c3)ncc2F)CC1(C)C [III-125, 5-fluoro-N2-(3-(1-methyl-1H-tetrazol-5-yl)-4-(tetrahydro-2H-pyran-4-yloxy)phenyl)-N4-(1,2,2,6,6-pentamethylpiperidin-4-yl)pyrimidine-2,4-diamine] | 250 to 500 |
| Cn1nnnc1-c1cc(Nc2ncc(F)c(NC3CC(C)(C)NC(C)(C)C3)n2)ccc1OC1COC1 [III-126, 5-fluoro-N2-(3-(1-methyl-1H-tetrazol-5-yl)-4-(oxetan-3-yloxy)phenyl)-N4-(2,2,6,6-tetramethylpiperidin-4-yl)pyrimidine-2,4-diamine] | > 1000 |
| CN1C(C)(C)CC(Nc2nc(Nc3ccc(OC4COC4)c(-c4nnnn4C)c3)ncc2F)CC1(C)C [III-127, 5-fluoro-N2-(3-(1-methyl-1H-tetrazol-5-yl)-4-(oxetan-3-yloxy)phenyl)-N4-(1,2,2,6,6-pentamethylpiperidin-4-yl)pyrimidine-2,4-diamine] | < 250 |
| COCCn1nnnc1-c1cc(Nc2ncc(F)c(NC3CC(C)(C)N(C)C(C)(C)C3)n2)ccc1F [III-128, 5-fluoro-N2-(4-fluoro-3-(1-(2-methoxyethyl)-1H-tetrazol-5-yl)phenyl)-N4-(1,2,2,6,6-pentamethylpiperidin-4-yl)pyrimidine-2,4-diamine] | 250 to 500 |
| COCCn1nnnc1-c1cc(Nc2ncc(F)c(NC3CC(C)(C)NC(C)(C)C3)n2)ccc1F [III-129, 5-fluoro-N2-(4-fluoro-3-(1-(2-methoxyethyl)-1H-tetrazol-5-yl)phenyl)-N4-(2,2,6,6-tetramethylpiperidin-4-yl)pyrimidine-2,4-diamine] | > 1000 |
| Cn1nnnc1-c1cc(Nc2ncc(F)c(NC3CC(C)(C)NC(C)(C)C3)n2)ccc1Cl [III-130, N2-(4-chloro-3-(1-methyl-1H-tetrazol-5-yl)phenyl)-5-fluoro-N4-(2,2,6,6-tetramethylpiperidin-4-yl)pyrimidine-2,4-diamine] | < 250 |
| CN1C(C)(C)CC(Nc2nc(Nc3ccc(Cl)c(-c4nnnn4C)c3)ncc2F)CC1(C)C [III-131, N2-(4-chloro-3-(1-methyl-1H-tetrazol-5-yl)phenyl)-5-fluoro-N4-(1,2,2,6,6-pentamethylpiperidin-4-yl)pyrimidine-2,4-diamine] | < 250 |
| Cc1cc(Nc2ncc(F)c(NC3CC(C)(C)NC(C)(C)C3)n2)cc(-c2nnnn2C)c1 [III-132, 5-fluoro-N2-(3-methyl-5-(1-methyl-1H-tetrazol-5-yl)phenyl)-N4-(2,2,6,6-tetramethylpiperidin-4-yl)pyrimidine-2,4-diamine] | 250 to 500 |
| Cc1cc(Nc2ncc(F)c(NC3CC(C)(C)N(C)C(C)(C)C3)n2)cc(-c2nnnn2C)c1 [III-133, 5-fluoro-N2-(3-methyl-5-(1-methyl-1H-tetrazol-5-yl)phenyl)-N4-(1,2,2,6,6-pentamethylpiperidin-4-yl)pyrimidine-2,4-diamine] | < 250 |
| Cn1nnnc1-c1cc(Cl)cc(Nc2ncc(F)c(NC3CC(C)(C)NC(C)(C)C3)n2)c1 [III-134, N2-(3-chloro-5-(1-methyl-1H-tetrazol-5-yl)phenyl)-5-fluoro-N4-(2,2,6,6-tetramethylpiperidin-4-yl)pyrimidine-2,4-diamine] | < 250 |
| CN1C(C)(C)CC(Nc2nc(Nc3cc(Cl)cc(-c4nnnn4C)c3)ncc2F)CC1(C)C [III-135, N2-(3-chloro-5-(1-methyl-1H-tetrazol-5-yl)phenyl)-5-fluoro-N4-(1,2,2,6,6-pentamethylpiperidin-4-yl)pyrimidine-2,4-diamine] | < 250 |
| Cn1nnnc1-c1cc(Nc2ncc(F)c(NC3CC(C)(C)NC(C)(C)C3)n2)cc(F)c1F [III-136, N2-(3,4-difluoro-5-(1-methyl-1H-tetrazol-5-yl)phenyl)-5-fluoro-N4-(2,2,6,6-tetramethylpiperidin-4-yl)pyrimidine-2,4-diamine] | 250 to 500 |
| CN1C(C)(C)CC(Nc2nc(Nc3cc(F)c(F)c(-c4nnnn4C)c3)ncc2F)CC1(C)C [III-137, N2-(3,4-difluoro-5-(1-methyl-1H-tetrazol-5-yl)phenyl)-5-fluoro-N4-(1,2,2,6,6-pentamethylpiperidin-4-yl)pyrimidine-2,4-diamine] | < 250 |
| Cn1nnnc1-c1cc(F)cc(Nc2ncc(F)c(NC3CC(C)(C)NC(C)(C)C3)n2)c1 [III-138, 5-fluoro-N2-(3-fluoro-5-(1-methyl-1H-tetrazol-5-yl)phenyl)-N4-(2,2,6,6-tetramethylpiperidin-4-yl)pyrimidine-2,4-diamine] | 500 to 1000 |
| CN1C(C)(C)CC(Nc2nc(Nc3cc(F)cc(-c4nnnn4C)c3)ncc2F)CC1(C)C [III-139, 5-fluoro-N2-(3-fluoro-5-(1-methyl-1H-tetrazol-5-yl)phenyl)-N4-(1,2,2,6,6-pentamethylpiperidin-4-yl)pyrimidine-2,4-diamine] | < 250 |
| Cn1nnnc1-c1cc(Nc2ncc(F)c(NC3CC(C)(C)NC(C)(C)C3)n2)cc(C(F)(F)F)c1 [III-140, 5-fluoro-N2-(3-(1-methyl-1H-tetrazol-5-yl)-5-(trifluoromethyl)phenyl)-N4-(2,2,6,6-tetramethylpiperidin-4-yl)pyrimidine-2,4-diamine] | < 250 |
